# Laboratory results reported in patent US10287301B2 (Achillion Pharmaceuticals, Inc., priority 2015, dated 2019).
# Molecular target: Human Factor D (Homo sapiens (Human), UniProt P00746)
# Test: Human Factor D Assay
# Format: biochemical
# Conditions: Human Factor D 80 nM, substrate Z-L-Lys-SBzl; read-out: IC50
# Method in brief: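 First, compound at various concentrations is mixed with 80 nM (final) human serum Factor D in 50 mM Tris, 1M NaCl, pH 7.5 for 5 min at room temperature.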
# Human Factor D, sequence (P00746 26-253): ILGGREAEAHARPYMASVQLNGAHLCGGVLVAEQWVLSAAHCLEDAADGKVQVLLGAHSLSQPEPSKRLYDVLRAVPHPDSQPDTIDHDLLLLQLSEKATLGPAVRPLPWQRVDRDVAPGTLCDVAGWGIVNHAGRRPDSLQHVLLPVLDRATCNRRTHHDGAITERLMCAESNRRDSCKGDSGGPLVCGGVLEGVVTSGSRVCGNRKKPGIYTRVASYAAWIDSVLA
row,Compound,IC50 [nM]
1,"NC(=O)c1nn(CC(=O)N2C[C@H](F)C[C@H]2C(=O)Nc2cccc(OC(F)(F)F)c2F)c2ccc(-c3cncnc3)cc12 [Compound 9, 1-(2-((2S,4R)-4-fluoro-2-(2-fluoro-3-(trifluoromethoxy)phenylcarbamoyl)pyrrolidin-1-yl)-2-oxoethyl)-5-(pyrimidin-5-yl)-1H-indazole-3-carboxamide]",< 1000
2,"COc1ncc(-c2ccc3c(c2)c(C(C)=O)cn3CC(=O)N2C[C@H](F)C[C@H]2C(=O)NCc2cccc(Cl)c2F)cn1 [Compound 136, (2S,4R)-1-(2-(3-acetyl-5-(2-methoxypyrimidin-5-yl)-1H-indol-1-yl)acetyl)-N-(3-chloro-2-fluorobenzyl)-4-fluoropyrrolidine-2-carboxamide]",< 1000
3,Cc1ncc(-c2ccc3c(c2)c(C(N)=O)nn3CC(=O)N2C[C@H](F)C[C@H]2C(=O)Nc2cccc(-c3ccccc3Cl)c2F)cn1 [Compound 103],< 1000
4,"CC(=O)c1cn(CC(=O)N2C[C@H](F)C[C@H]2C(=O)Nc2cccc(-c3ccccc3Cl)c2F)c2ccc(-c3cnc(N4CCCC4)nc3)cc12 [Compound 26, (2S,4R)-1-(2-(3-acetyl-5-(2-(pyrrolidin-1-yl)pyrimidin-5-yl)-1H-indol-1-yl)acetyl)-N-(2′-chloro-2-fluorobiphenyl-3-yl)-4-fluoropyrrolidine-2-carboxamide]",< 1000
5,"CC(=O)c1cn(CC(=O)N2C[C@H](F)C[C@H]2C(=O)Nc2cccc(-c3ccccc3Cl)c2F)c2ccc(-c3cnc(C(F)(F)F)nc3)cc12 [Compound 191, (2S,4R)-1-(2-(3-acetyl-5-(2-(trifluoromethyl)pyrimidin-5-yl)-1H-indol-1-yl)acetyl)-N-(2′-chloro-2-fluorobiphenyl-3-yl)-4-fluoropyrrolidine-2-carboxamide]",< 1000
6,NC(=O)c1nn(CC(=O)N2C[C@H](F)C[C@H]2C(=O)Nc2cccc(-c3ccccc3Cl)c2F)c2ccc(-c3cnc(N4CCCC4)nc3)cc12 [Compound 10],< 1000

# Same assay, conditions: Human Factor D assay of Example 8; Table 2; read-out: IC50
row,Compound,IC50 [nM]
1,"CC(=O)c1cn(CC(=O)N2C[C@H](F)C[C@H]2C(=O)Nc2cccc(Br)n2)c2ccc(-c3cnc4cc(C)nn4c3)cc12 [Compound 277, (2S,4R)-1-(2-(3-acetyl-5-(2-methylpyrazolo[1,5-a]pyrimidin-6-yl)-1H-indol-1-yl)acetyl)-N-(6-bromopyridin-2-yl)-4-fluoropyrrolidine-2-carboxamide]",< 1000
2,"CC(=O)c1cn(CC(=O)N2C[C@H](F)C[C@H]2C(=O)Nc2cccc(OC(F)(F)F)c2F)c2ccc(-c3cnc4cc(C)nn4c3)cc12 [Compound 276, (2S,4R)-1-(2-(3-acetyl-5-(2-methylpyrazolo[1,5-a]pyrimidin-6-yl)-1H-indol-1-yl)acetyl)-4-fluoro-N-(2-fluoro-3-(trifluoromethoxy)phenyl)pyrrolidine-2-carboxamide]",< 1000
3,CC(=O)c1cn(CC(=O)N2C[C@H](F)C[C@H]2C(=O)Nc2cccnc2O)c2ccc(-c3ccnnc3)cc12 [Compound 197],> 10000

# Same assay, conditions: Human Factor D, Table 3; read-out: IC50
row,Compound,IC50 [nM]
1,"CC(=O)c1nn(CC(=O)N2[C@@H]3C[C@@H]3C[C@H]2C(=O)Nc2cnc(C)c(Br)n2)c2ccc(-c3cnc4cc(C)nn4c3)cc12 [Compound 666, (1R,3S,5R)-2-(2-(3-Acetyl-5-(2-methylpyrazolo[1,5-a]pyrimidin-6-yl)-1H-indazol-1-yl)acetyl)-N-(6-bromo-5-methylpyrazin-2-yl)-2-azabicyclo[3.1.0]hexane-3-carboxamide]",< 1000
2,"CC(=O)c1nn(CC(=O)N2C[C@H](F)C[C@H]2C(=O)Nc2ccn(CC(F)(F)F)n2)c2ccc(-c3cnc(N)nc3)cc12 [Compound 558, (2S,4R)-1-(2-(3-Acetyl-5-(2-aminopyrimidin-5-yl)-1H-indazol-1-yl)acetyl)-4-fluoro-N-(1-(S2,2,2-trifluoroethyl)-1H-pyrazol-3-yl)pyrrolidine-2-carboxamide]",< 1000
3,"CC(=O)c1nn(CC(=O)N2C[C@H](F)C[C@H]2C(=O)Nc2cncc(Br)n2)c2ccc(-c3ccc4nc(C)cn4c3)cc12 [Compound 654, (2S,4R)-1-(2-(3-Acetyl-5-(2-methylimidazo[1,2-a]pyridin-6-yl)-1H-indazol-1-yl)acetyl)-N-(6-bromopyrazin-2-yl)-4-fluoropyrrolidine-2-carboxamide]",< 1000
4,"CC(=O)c1nn(CC(=O)N2[C@H](C(=O)Nc3cccc(OC(F)(F)F)c3F)C[C@@]3(C)C[C@@H]23)c2ccc(-c3cnc(C)nc3)cc12 [Compound 630, (1R,3S,5R)-2-(2-(3-acetyl-5-(2-methylpyrimidin-5-yl)-1H-indazol-1-yl)acetyl)-N-(2-fluoro-3-(trifluoromethoxy)phenyl)-5-methyl-2-azabicyclo[3.1.0] hexane-3-carboxamide]",< 1000
5,"CC(=O)c1nn(CC(=O)N2C[C@H]3C[C@H]3[C@H]2C(=O)Nc2nc(Br)ccc2C)c2ccc(-c3cnc(N)nc3)cc12 [Compound 635, (1R,2S,5S)-3-(2-(3-Acetyl-5-(2-aminopyrimidin-5-yl)-1H-indazol-1-yl)acetyl)-N-(6-bromo-3-methylpyridin-2-yl)-3-azabicyclo[3.1.0]hexane-2-carboxamide]",< 1000
6,"COc1cccc(NC(=O)[C@@H]2C[C@@H](F)CN2C(=O)Cn2nc(C(C)=O)c3cc(-c4cnc(C)nc4)ccc32)n1 [Compound 580, (2S,4R)-1-(2-(3-Acetyl-5-(2-methylpyrimidin-5-yl)-1H-indazol-1-yl)acetyl)-4-fluoro-N-(6-methoxypyridin-2-yl)pyrrolidine-2-carboxamide]",< 1000

# Same assay, conditions: Table 3; Human Factor D 80 nM, substrate Z-L-Lys-SBzl; read-out: IC50 (Stars)
row,Compound,IC50 [nM]
1,"CC(=O)c1nn(CC(=O)N2C[C@H](F)[C@@H](O)[C@H]2C(=O)Nc2cccc(Br)n2)c2ccc(-c3cnc(C)nc3)cc12 [Compound 346, (2S,3S,4S)-1-(2-(3-Acetyl-5-(2-methylpyrimidin-5-yl)-1H-indazol-1-yl)acetyl)-N-(6-bromopyridin-2-yl)-4-fluoro-3-hydroxypyrrolidine-2-carboxamide]",< 1000
2,"CC(=O)c1nn(CC(=O)N2C[C@H](F)C[C@H]2C(=O)Nc2ccn(CC(F)(F)F)n2)c2ccc(-c3cnc(C)nc3)cc12 [Compound 357, (2S,4R)-1-(2-(3-Acetyl-5-(2-methylpyrimidin-5-yl)-1H-indazol-1-yl)acetyl)-4-fluoro-N-(1-(2,2,2-trifluoroethyl)-1H-pyrazol-3-yl)pyrrolidine-2-carboxamide]",< 1000
3,"CC(=O)c1nn(CC(=O)N2C[C@H](F)C[C@H]2C(=O)Nc2cc(C)cc(Br)n2)c2ccc(-c3cnc(C)nc3)cc12 [Compound 345, (2S,4R)-1-(2-(3-Acetyl-5-(2-methylpyrimidin-5-yl)-1H-indazol-1-yl)acetyl)-N-(6-bromo-4-methylpyridin-2-yl)-4-fluoropyrrolidine-2-carboxamide]",< 1000
4,"CC(=O)c1nn(CC(=O)N2C[C@H](F)C[C@H]2C(=O)NC2C[C@H]2c2ccccc2Cl)c2ccc(-c3cnc(C)nc3)cc12 (stereo partly drawn) [Compound 460, (2S,4R)-1-(2-(3-acetyl-5-(2-methylpyrimidin-5-yl)-1H-indazol-1-yl)acetyl)-N-((2S)-2-(2-chlorophenyl)cyclopropyl)-4-fluoropyrrolidine-2-carboxamide]",< 1000
5,"CC(=O)c1nn(CC(=O)N2C[C@H](F)C[C@H]2C(=O)Nc2cccc(Br)n2)c2ccc(-c3cnc(OCC(F)(F)F)nc3)cc12 [Compound 505, (2S,4R)-1-(2-(3-Acetyl-5-(2-(S2,2,2-trifluoroethoxy)pyrimidin-5-yl)-1H-indazol-1-yl)acetyl)-N-(6-bromopyridin-2-yl)-4-fluoropyrrolidine-2-carboxamide]",< 1000
